Experimental data from ChEMBL document CHEMBL3046876, “Effect of Buprofezin on Oviposition of Brown Planthopper, Nilaparvata lugens, at Sub-lethal Dose” (1996).

Assays:
Type in all cases: functional
Nilaparvata lugens [1] = experiment: Insecticidal activity against Nilaparvata lugens (brown planthopper) emerged female adult assessed as mortality at 0.08 ppm measured after 7 days relative to control; conditions: 168 h
Nilaparvata lugens [2] = experiment: Insecticidal activity against Nilaparvata lugens (brown planthopper) assessed as mortality at 0.08 ppm measured after 7 days relative to control; conditions: 168 h
Nilaparvata lugens [3] = experiment: Insecticidal activity against Nilaparvata lugens (brown planthopper) emerged female adult assessed as mortality at 0.4 ppm measured after 7 days relative to control; conditions: 168 h
Nilaparvata lugens [4] = experiment: Effect on egg maturity in Nilaparvata lugens (brown planthopper) at 0.00064 ppm measured after 7 days relative to control
Nilaparvata lugens [5] = experiment: Insecticidal activity against Nilaparvata lugens (brown planthopper) assessed as mortality at 0.0000256 ppm measured after 7 days relative to control; conditions: 168 h
Nilaparvata lugens [6] = experiment: Effect on oviposition in Nilaparvata lugens (brown planthopper) assessed as eggs laid at 10 ppm measured after 7 days relative to control
Nilaparvata lugens [7] = experiment: Insecticidal activity against Nilaparvata lugens (brown planthopper) emerged female adult assessed as mortality at 2 ppm measured after 7 days relative to control; conditions: 168 h
Nilaparvata lugens [8] = experiment: Insecticidal activity against Nilaparvata lugens (brown planthopper) assessed as mortality at 0.00064 ppm measured after 7 days relative to control; conditions: 168 h
Nilaparvata lugens [9] = experiment: Effect on life span in Nilaparvata lugens (brown planthopper) adult at 0.4 ppm measured after 7 days relative to control
Nilaparvata lugens [10] = experiment: Insecticidal activity against Nilaparvata lugens (brown planthopper) assessed as mortality at 0.000128 ppm measured after 7 days relative to control; conditions: 168 h
Nilaparvata lugens [11] = experiment: Insecticidal activity against Nilaparvata lugens (brown planthopper) emerged female adult assessed as mortality at 0.000128 ppm measured after 7 days relative to control; conditions: 168 h
Nilaparvata lugens [12] = experiment: Insecticidal activity against Nilaparvata lugens (brown planthopper) fifth-instar nymphs assessed as mortality at 0.016 ppm measured after 7 days; conditions: 168 h
Nilaparvata lugens [13] = experiment: Insecticidal activity against Nilaparvata lugens (brown planthopper) fifth-instar nymphs assessed as mortality at 0.0032 ppm measured after 7 days; conditions: 168 h
Nilaparvata lugens [14] = experiment: Effect on hatchability in Nilaparvata lugens (brown planthopper) at 0.016 ppm measured after 7 days relative to control
Nilaparvata lugens [15] = experiment: Effect on development of ovarioles in Nilaparvata lugens (brown planthopper) assessed as number of ovarioles at 0.016 ppm measured after 7 days relative to control
Nilaparvata lugens [16] = experiment: Effect on oviposition in Nilaparvata lugens (brown planthopper) assessed as eggs laid at 0.00064 ppm measured after 7 days relative to control
Nilaparvata lugens [17] = experiment: Effect on hatchability in Nilaparvata lugens (brown planthopper) at 0.4 ppm measured after 7 days relative to control
Nilaparvata lugens [18] = experiment: Effect on oviposition in Nilaparvata lugens (brown planthopper) assessed as eggs laid at 0.0000256 ppm measured after 7 days relative to control
Nilaparvata lugens [19] = experiment: Effect on oviposition in Nilaparvata lugens (brown planthopper) assessed as eggs laid at 2 ppm measured after 7 days relative to control
Nilaparvata lugens [20] = experiment: Effect on hatchability in Nilaparvata lugens (brown planthopper) at 0.08 ppm measured after 7 days relative to control
Nilaparvata lugens [21] = experiment: Insecticidal activity against Nilaparvata lugens (brown planthopper) fifth-instar nymphs assessed as mortality at 0.000128 ppm measured after 7 days; conditions: 168 h
Nilaparvata lugens [22] = experiment: Insecticidal activity against Nilaparvata lugens (brown planthopper) assessed as mortality at 2 ppm measured after 7 days relative to control; conditions: 168 h
Nilaparvata lugens [23] = experiment: Insecticidal activity against Nilaparvata lugens (brown planthopper) assessed as mortality at 0.4 ppm measured after 7 days relative to control; conditions: 168 h
Nilaparvata lugens [24] = experiment: Effect on oviposition in Nilaparvata lugens (brown planthopper) assessed as eggs laid at 0.08 ppm measured after 7 days relative to control
Nilaparvata lugens [25] = experiment: Effect on egg maturity in Nilaparvata lugens (brown planthopper) at 0.016 ppm measured after 7 days relative to control
Nilaparvata lugens [26] = experiment: Insecticidal activity against Nilaparvata lugens (brown planthopper) fifth-instar nymphs assessed as mortality at 0.08 ppm measured after 7 days; conditions: 168 h
Nilaparvata lugens [27] = experiment: Insecticidal activity against Nilaparvata lugens (brown planthopper) emerged female adult assessed as mortality at 0.00064 ppm measured after 7 days relative to control; conditions: 168 h
Nilaparvata lugens [28] = experiment: Insecticidal activity against Nilaparvata lugens (brown planthopper) emerged female adult assessed as mortality at 10 ppm measured after 7 days relative to control; conditions: 168 h
Nilaparvata lugens [29] = experiment: Insecticidal activity against Nilaparvata lugens (brown planthopper) fifth-instar nymphs assessed as mortality at 10 ppm measured after 7 days; conditions: 168 h
Nilaparvata lugens [30] = experiment: Insecticidal activity against Nilaparvata lugens (brown planthopper) assessed as mortality at 50 ppm measured after 7 days relative to control; conditions: 168 h
Nilaparvata lugens [31] = experiment: Effect on development of ovarioles in Nilaparvata lugens (brown planthopper) assessed as number of ovarioles at 0.00064 ppm measured after 7 days relative to control
Nilaparvata lugens [32] = experiment: Insecticidal activity against Nilaparvata lugens (brown planthopper) emerged female adult assessed as mortality at 0.0000256 ppm measured after 7 days relative to control; conditions: 168 h
Nilaparvata lugens [33] = experiment: Effect on life span in Nilaparvata lugens (brown planthopper) adult at 0.016 ppm measured after 7 days relative to control
Nilaparvata lugens [34] = experiment: Effect on oviposition in Nilaparvata lugens (brown planthopper) assessed as eggs laid at 0.000128 ppm measured after 7 days relative to control
Nilaparvata lugens [35] = experiment: Insecticidal activity against Nilaparvata lugens (brown planthopper) fifth-instar nymphs assessed as mortality at 50 ppm measured after 7 days; conditions: 168 h
Nilaparvata lugens [36] = experiment: Insecticidal activity against Nilaparvata lugens (brown planthopper) assessed as mortality at 10 ppm measured after 7 days relative to control; conditions: 168 h
Nilaparvata lugens [37] = experiment: Effect on development of ovarioles in Nilaparvata lugens (brown planthopper) assessed as number of ovarioles at 0.4 ppm measured after 7 days relative to control
Nilaparvata lugens [38] = experiment: Insecticidal activity against Nilaparvata lugens (brown planthopper) assessed as mortality at 0.0032 ppm measured after 7 days relative to control; conditions: 168 h
Nilaparvata lugens [39] = experiment: Insecticidal activity against Nilaparvata lugens (brown planthopper) fifth-instar nymphs assessed as mortality at 0.4 ppm measured after 7 days; conditions: 168 h
Nilaparvata lugens [40] = experiment: Effect on hatchability in Nilaparvata lugens (brown planthopper) at 2 ppm measured after 7 days relative to control
Nilaparvata lugens [41] = experiment: Effect on oviposition in Nilaparvata lugens (brown planthopper) assessed as eggs laid at 0.016 ppm measured after 7 days relative to control
Nilaparvata lugens [42] = experiment: Insecticidal activity against Nilaparvata lugens (brown planthopper) assessed as mortality at 0.016 ppm measured after 7 days relative to control; conditions: 168 h
Nilaparvata lugens [43] = experiment: Effect on life span in Nilaparvata lugens (brown planthopper) adult at 0.00064 ppm measured after 7 days relative to control
Nilaparvata lugens [44] = experiment: Effect on oviposition in Nilaparvata lugens (brown planthopper) assessed as eggs laid at 0.4 ppm measured after 7 days relative to control
Nilaparvata lugens [45] = experiment: Insecticidal activity against Nilaparvata lugens (brown planthopper) fifth-instar nymphs assessed as mortality at 2 ppm measured after 7 days; conditions: 168 h
Nilaparvata lugens [46] = experiment: Effect on egg maturity in Nilaparvata lugens (brown planthopper) at 0.4 ppm measured after 7 days relative to control
Nilaparvata lugens [47] = experiment: Insecticidal activity against Nilaparvata lugens (brown planthopper) emerged female adult assessed as mortality at 0.0032 ppm measured after 7 days relative to control; conditions: 168 h
Nilaparvata lugens [48] = experiment: Insecticidal activity against Nilaparvata lugens (brown planthopper) fifth-instar nymphs assessed as mortality at 0.00064 ppm measured after 7 days; conditions: 168 h
Nilaparvata lugens [49] = experiment: Effect on life span in Nilaparvata lugens (brown planthopper) adult at 10 ppm measured after 7 days relative to control
Nilaparvata lugens [50] = experiment: Insecticidal activity against Nilaparvata lugens (brown planthopper) fifth-instar nymphs assessed as mortality at 0.0000256 ppm measured after 7 days; conditions: 168 h
Nilaparvata lugens [51] = experiment: Insecticidal activity against Nilaparvata lugens (brown planthopper) emerged female adult assessed as mortality at 0.016 ppm measured after 7 days relative to control; conditions: 168 h
Nilaparvata lugens [52] = experiment: Effect on oviposition in Nilaparvata lugens (brown planthopper) assessed as eggs laid at 0.0032 ppm measured after 7 days relative to control
Nilaparvata lugens [53] = experiment: Effect on hatchability in Nilaparvata lugens (brown planthopper) at 10 ppm measured after 7 days relative to control

CC(C)N1C(=O)N(c2ccccc2)CS/C1=N\C(C)(C)C [BUPROFEZIN]
mortality at 0.08 ppm (Nilaparvata lugens [1]): 9% | mortality at 0.08 ppm (Nilaparvata lugens [2]): 9% | mortality at 0.4 ppm (Nilaparvata lugens [3]): 13% | Activity (Nilaparvata lugens [4]): 98% | mortality at 2.56e-05 ppm (Nilaparvata lugens [5]): 0% | Activity (Nilaparvata lugens [6]): 0% | mortality at 2 ppm (Nilaparvata lugens [7]): 69% | mortality at 0.00064 ppm (Nilaparvata lugens [8]): 0% | Activity (Nilaparvata lugens [9]): 78% | mortality at 0.000128 ppm (Nilaparvata lugens [10]): 11% | mortality at 0.000128 ppm (Nilaparvata lugens [11]): 11% | mortality at 0.016 ppm (Nilaparvata lugens [12]): 0% | mortality at 0.0032 ppm (Nilaparvata lugens [13]): 0% | Activity (Nilaparvata lugens [14]): 96% | Activity (Nilaparvata lugens [15]): 106% | Activity (Nilaparvata lugens [16]): 88% | Activity (Nilaparvata lugens [17]): 97% | Activity (Nilaparvata lugens [18]): 97% | Activity (Nilaparvata lugens [19]): 36% | Activity (Nilaparvata lugens [20]): 98% | mortality at 0.000128 ppm (Nilaparvata lugens [21]): 0% | mortality at 2 ppm (Nilaparvata lugens [22]): 69% | mortality at 0.4 ppm (Nilaparvata lugens [23]): 19% | Activity (Nilaparvata lugens [24]): 111% | Activity (Nilaparvata lugens [25]): 106% | mortality at 0.08 ppm (Nilaparvata lugens [26]): 0% | mortality at 0.00064 ppm (Nilaparvata lugens [27]): 0% | mortality at 10 ppm (Nilaparvata lugens [28]): 57% | mortality at 10 ppm (Nilaparvata lugens [29]): 89% | mortality at 50 ppm (Nilaparvata lugens [30]): 100% | Activity (Nilaparvata lugens [31]): 103% | mortality at 2.56e-05 ppm (Nilaparvata lugens [32]): 0% | Activity (Nilaparvata lugens [33]): 101% | Activity (Nilaparvata lugens [34]): 117% | mortality at 50 ppm (Nilaparvata lugens [35]): 100% | mortality at 10 ppm (Nilaparvata lugens [36]): 95% | Activity (Nilaparvata lugens [37]): 107% | mortality at 0.0032 ppm (Nilaparvata lugens [38]): 0% | mortality at 0.4 ppm (Nilaparvata lugens [39]): 7% | Activity (Nilaparvata lugens [40]): 74% | Activity (Nilaparvata lugens [41]): 92% | mortality at 0.016 ppm (Nilaparvata lugens [42]): 3% | Activity (Nilaparvata lugens [43]): 106% | Activity (Nilaparvata lugens [44]): 79% | mortality at 2 ppm (Nilaparvata lugens [45]): 0% | Activity (Nilaparvata lugens [46]): 100% | mortality at 0.0032 ppm (Nilaparvata lugens [47]): 0% | mortality at 0.00064 ppm (Nilaparvata lugens [48]): 0% | Activity (Nilaparvata lugens [49]): 28% | mortality at 2.56e-05 ppm (Nilaparvata lugens [50]): 0% | mortality at 0.016 ppm (Nilaparvata lugens [51]): 3% | Activity (Nilaparvata lugens [52]): 115%

CC1(C)[C@H](C(=O)O[C@H](C#N)c2cccc(Oc3ccccc3)c2)[C@@H]1C=C(Br)Br [DELTAMETHRIN]
mortality at 0.08 ppm (Nilaparvata lugens [1]): 0% | mortality at 0.08 ppm (Nilaparvata lugens [2]): 2% | mortality at 0.4 ppm (Nilaparvata lugens [3]): 0% | Activity (Nilaparvata lugens [4]): 110% | mortality at 2.56e-05 ppm (Nilaparvata lugens [5]): 4% | Activity (Nilaparvata lugens [6]): 101% | mortality at 2 ppm (Nilaparvata lugens [7]): 0% | mortality at 0.00064 ppm (Nilaparvata lugens [8]): 4% | Activity (Nilaparvata lugens [9]): 125% | mortality at 0.000128 ppm (Nilaparvata lugens [10]): 0% | mortality at 0.000128 ppm (Nilaparvata lugens [11]): 0% | mortality at 0.016 ppm (Nilaparvata lugens [12]): 0% | mortality at 0.0032 ppm (Nilaparvata lugens [13]): 0% | Activity (Nilaparvata lugens [14]): 98% | Activity (Nilaparvata lugens [15]): 133% | Activity (Nilaparvata lugens [16]): 116% | Activity (Nilaparvata lugens [17]): 94% | Activity (Nilaparvata lugens [18]): 107% | Activity (Nilaparvata lugens [19]): 109% | Activity (Nilaparvata lugens [20]): 98% | mortality at 0.000128 ppm (Nilaparvata lugens [21]): 0% | mortality at 2 ppm (Nilaparvata lugens [22]): 4% | mortality at 0.4 ppm (Nilaparvata lugens [23]): 9% | Activity (Nilaparvata lugens [24]): 112% | Activity (Nilaparvata lugens [25]): 131% | mortality at 0.08 ppm (Nilaparvata lugens [26]): 2% | mortality at 0.00064 ppm (Nilaparvata lugens [27]): 4% | mortality at 10 ppm (Nilaparvata lugens [28]): 0% | mortality at 10 ppm (Nilaparvata lugens [29]): 40% | mortality at 50 ppm (Nilaparvata lugens [30]): 100% | Activity (Nilaparvata lugens [31]): 102% | mortality at 2.56e-05 ppm (Nilaparvata lugens [32]): 4% | Activity (Nilaparvata lugens [33]): 102% | Activity (Nilaparvata lugens [34]): 105% | mortality at 50 ppm (Nilaparvata lugens [35]): 100% | mortality at 10 ppm (Nilaparvata lugens [36]): 40% | Activity (Nilaparvata lugens [37]): 114% | mortality at 0.0032 ppm (Nilaparvata lugens [38]): 0% | mortality at 0.4 ppm (Nilaparvata lugens [39]): 9% | Activity (Nilaparvata lugens [40]): 92% | Activity (Nilaparvata lugens [41]): 128% | mortality at 0.016 ppm (Nilaparvata lugens [42]): 9% | Activity (Nilaparvata lugens [43]): 120% | Activity (Nilaparvata lugens [44]): 124% | mortality at 2 ppm (Nilaparvata lugens [45]): 4% | Activity (Nilaparvata lugens [46]): 113% | Activity (Nilaparvata lugens [53]): 98% | mortality at 0.0032 ppm (Nilaparvata lugens [47]): 0% | mortality at 0.00064 ppm (Nilaparvata lugens [48]): 0% | Activity (Nilaparvata lugens [49]): 112% | mortality at 2.56e-05 ppm (Nilaparvata lugens [50]): 0% | mortality at 0.016 ppm (Nilaparvata lugens [51]): 9% | Activity (Nilaparvata lugens [52]): 136%
